Consider one compound from patent US20090143288A1, “Peptide-complement conjugates” (Roche Palo Alto LLC, priority 2007, published 2009).

Molecules are shown by their SMILES.

This assay concerns the target HR1 region of HIV-1 gp41 (immobilized biotinylated HR1 peptide Biotin-T-2324) (Human immunodeficiency virus type 1 group M subtype B, UniProt P04582, G556A). Nature of the assay: BIAcore surface plasmon resonance analysis of the binding to the HR1 region. Conditions: SPR, BIAcore 3000, 25° C., HBS-P buffer, 1:1 Langmuir binding model. For orientation: In SPR one partner is held on a chip, and binding of the other changes the refractive index at the surface.

With `CC[C@H](C)[C@H](NC(=O)[C@H](CCC(N)=O)NC(=O)[C@H](C)NC(=O)[C@H](CCC(N)=O)NC(=O)[C@H](CCC(=O)O)NC(=O)[C@H](CC(C)C)NC(=O)[C@H](CC(C)C)NC(=O)[C@H](C)NC(=O)[C@@H](NC(=O)[C@@H](NC(=O)[C@H](CCCCN)NC(=O)[C@H](CCC(N)=O)NC(=O)[C@H](CCC(=O)O)NC(=O)[C@H](Cc1c[nH]c2ccccc12)NC(=O)[C@H](CCC(=O)O)NC(=O)[C@H](CCC(N)=O)NC(=O)[C@H](Cc1c[nH]c2ccccc12)NC(C)=O)[C@@H](C)CC)[C@@H](C)O)C(=O)N[C@@H](CCC(N)=O)C(=O)N[C@@H](CCC(N)=O)C(=O)N[C@@H](CCC(=O)O)C(=O)N[C@@H](CCCCN)C(=O)N[C@@H](CC(N)=O)C(=O)N[C@@H](CCC(=O)O)C(=O)N[C@@H](Cc1ccc(O)cc1)C(=O)N[C@@H](CCC(=O)O)C(=O)N[C@@H](CC(C)C)C(=O)N[C@@H](CCC(N)=O)C(=O)N[C@@H](CCCCN)C(=O)N[C@@H](CC(C)C)C(=O)N[C@@H](CC(=O)O)C(=O)N[C@@H](CCCCN)C(=O)N[C@@H](Cc1c[nH]c2ccccc12)C(=O)N[C@@H](C)C(=O)N[C@@H](CO)C(=O)N[C@@H](CC(C)C)C(=O)N[C@@H](Cc1c[nH]c2ccccc12)C(=O)N[C@@H](CCC(=O)O)C(=O)N[C@@H](Cc1c[nH]c2ccccc12)C(=O)N[C@@H](Cc1ccccc1)C(N)=O` [Rob T-1249, WQEWEQKITALLEQAQIQQEKNEYELQKLDKWASLWEWF], the “ka (association rate constant)” value was 6.4 * 10^5 1/ms and the “kd (dissociation rate constant)” value was 0.000845 s⁻¹.
